Reference: patent US20240067632A1, “WEE1 Degrading Compounds and Uses Thereof” (Bristol-Myers Squibb Company, priority 2022, published 2024)
Like-named read-outs stand apart in the source and are kept apart here.

Columns and labels:
WEE1 = target: T1, WEE1 (Homo sapiens, UniProt P30291+Q96SW2); experiment: WEE1-ePL degradation assay (LentiX-WEE1-ePL-GSPT1-ND cells, InCELL Hunter luminescence, 4 h); format: cell-based; conditions: 293T-LentiX WEE1-ePL cells; for DC50: read-out: 293T-LentiX WEE1-ePL Degradation 4 hr (EC50)
T1 construct: C-terminal ePL-tagged (DiscoverX, Fremont, CA) full-length WEE1 expression construct; expressed in transfected cells; host or cells: LentiX-HEK293T (Invitrogen), lentiviral transduction; co-expressing GSPT1-GN (G576N, lacking the first 158 amino acids)
Summary of the method: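 Luminescent readout (InCELL Hunter, 30 min RT) of WEE1-ePL levels in transduced HEK293T cells after 4 h compound exposure at 37 °C. Dosing: 10 points, 3-fold steps, top 1 uM or 10 uM. EC50 from four-parameter logistic fit; Ymax set by DMSO.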

MKN45 cells = experiment: MKN45 cell proliferation assay (Cell-Titer-Glo, 120 h); format: cell-based; conditions: for EC50: Homo sapiens, MKN-45, 120 h, Cell-Titer-Glo, read-out: MKN45 Cell Prolif. 120 hr (EC50); for MKN45 Cell Prolif. 120 hr (Ymin-Obs): minimal percent of DMSO control observed in the concentrations tested
Summary of the method: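 Growth inhibition was read as blank-corrected Cell-Titer-Glo luminescence expressed as percent DMSO control after 120 h at 37 C, 400 cells/well. Compounds tested in triplicate as 10-point half-log series from 1 or 10 uM, 0.1% DMSO; four-parameter fit gave EC50, and lowest observed percent control was reported as Ymin-obs.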

[1] = lower limit of the fit (0 = luciferase inhibitor, Ymax = DMSO control)
[2] = lower limit of the fit (Ymin=0 luciferase inhibitor, Ymax DMSO control)

| SMILES | 293T-LentiX WEE1-ePL Degradation 4 hr (Ymin) (WEE1; [1]) | DC50 (WEE1) [nM] | EC50 (MKN45 cells; growth inhibition) [nM] | 293T-LentiX WEE1-ePL Degradation 4 hr (Ymin) (WEE1; [2]) | EC50 (MKN45 cells) [nM] | MKN45 Cell Prolif. 120 hr (Ymin-Obs) (MKN45 cells) |
| --- | --- | --- | --- | --- | --- | --- |
| CC(C)(O)c1ccc2cc(CN3CC[C@H](Oc4ccc5c(c4)CN([C@H]4CCC(=O)NC4=O)C5=O)C3)ccc2n1 [(3S)-3-(5-{[(3S)-1-{[2-(2-hydroxypropan-2-yl)quinolin-6-yl]methyl}pyrrolidin-3-yl]oxy}-1-oxo-2,3-dihydro-1H-isoindol-2-yl)piperidine-2,6-dione] | 33.92 | 1.69 | 10.1 |  |  | 12.89 |
| CC(=O)N1CCN(c2ncc3cc(CN4CC[C@H](Oc5ccc6c(c5)CN([C@H]5CCC(=O)NC5=O)C6=O)C4)ccc3n2)CC1 [(3S)-3-(5-{[(3S)-1-{[2-(4-acetylpiperazin-1-yl)quinazolin-6-yl]methyl}pyrrolidin-3-yl]oxy}-1-oxo-2,3-dihydro-1H-isoindol-2-yl)piperidine-2,6-dione] |  | 9.27 |  | 39.39 | 8.63 | 9.801 |
| CC(=O)N1CCN(c2ccc3cc(CN4CC[C@H](Oc5ccc6c(c5)CN([C@H]5CCC(=O)NC5=O)C6=O)C4)ccc3n2)CC1 [(3S)-3-(5-{[(3S)-1-{[2-(4-acetylpiperazin-1-yl)quinolin-6-yl]methyl}pyrrolidin-3-yl]oxy}-1-oxo-2,3-dihydro-1H-isoindol-2-yl)piperidine-2,6-dione] |  | 1.69 |  | 40.44 | 9.94 | 17.95 |
| CN1CCN(c2ncc3cc(CN4CC[C@H](Oc5ccc6c(c5)CN([C@H]5CCC(=O)NC5=O)C6=O)C4)ccc3n2)CC1 [(3S)-3-(5-{[(3S)-1-{[2-(4-methylpiperazin-1-yl)quinazolin-6-yl]methyl}pyrrolidin-3-yl]oxy}-1-oxo-2,3-dihydro-1H-isoindol-2-yl)piperidine-2,6-dione] |  | 11.1 |  | 37.97 | 15.2 | 12.23 |
| O=C1CC[C@H](N2Cc3cc(O[C@H]4CCN(Cc5ccc6nc(N7CCC7)ncc6c5)C4)ccc3C2=O)C(=O)N1 [(3S)-3-(5-{[(3S)-1-{[2-(azetidin-1-yl)quinazolin-6-yl]methyl}pyrrolidin-3-yl]oxy}-1-oxo-2,3-dihydro-1H-isoindol-2-yl)piperidine-2,6-dione] |  | 12.1 |  | 45.2 | 33.8 | 31.75 |
| O=C1CC[C@H](N2Cc3cc(O[C@H]4CCN(Cc5cc(C(F)(F)F)c6nc(N7CCOCC7)ncc6c5)C4)ccc3C2=O)C(=O)N1 [(3S)-3-(5-{[(3S)-1-{[2-(morpholin-4-yl)-8-(trifluoromethyl)quinazolin-6-yl]methyl}pyrrolidin-3-yl]oxy}-1-oxo-2,3-dihydro-1H-isoindol-2-yl)piperidine-2,6-dione] |  | 1.8 |  | 33.06 | 8.91 | 3.502 |
| O=C1CC[C@H](N2Cc3cc(O[C@H]4CCN(Cc5ccc6nc(N7CCOCC7)ncc6c5)C4)ccc3C2=O)C(=O)N1 [(3S)-3-(5-{[(3S)-1-{[2-(morpholin-4-yl)quinazolin-6-yl]methyl}pyrrolidin-3-yl]oxy}-1-oxo-2,3-dihydro-1H-isoindol-2-yl)piperidine-2,6-dione] | 34 | 7.36 | 11.7 |  |  | 11.86 |
| O=C1CC[C@H](N2Cc3cc(O[C@H]4CCN(Cc5ccc6nc(N7CCOCC7)ccc6c5)C4)ccc3C2=O)C(=O)N1 [(3S)-3-(5-{[(3S)-1-{[2-(morpholin-4-yl)quinolin-6-yl]methyl}pyrrolidin-3-yl]oxy}-1-oxo-2,3-dihydro-1H-isoindol-2-yl)piperidine-2,6-dione] | 34.59 | 1.83 | 9.71 |  |  | 14.56 |

More lines, main results first:

| 293T-LentiX WEE1-ePL Degradation 4 hr (Ymin) (WEE1; [1]) | DC50 (WEE1) [nM] | EC50 (MKN45 cells; growth inhibition) [nM] | 293T-LentiX WEE1-ePL Degradation 4 hr (Ymin) (WEE1; [2]) | EC50 (MKN45 cells) [nM] | SMILES | MKN45 Cell Prolif. 120 hr (Ymin-Obs) (MKN45 cells) |
| --- | --- | --- | --- | --- | --- | --- |
|  |  |  | 88.43 | 2.94 | O=C1CC[C@H](N2Cc3cc(O[C@H]4CCN(Cc5cc(C6COC6)c6nc(C7CCOCC7)ccc6c5)C4)ccc3C2=O)C(=O)N1 [(3S)-3-(5-{[(3S)-1-{[2-(oxan-4-yl)-8-(oxetan-3-yl)quinolin-6-yl]methyl}pyrrolidin-3-yl]oxy}-1-oxo-2,3-dihydro-1H-isoindol-2-yl)piperidine-2,6-dione] | 96.91 |
|  | 2.48 |  | 42.83 | 2.99 | O=C1CC[C@H](N2Cc3cc(O[C@H]4CCN(Cc5cc(C(F)(F)F)c6nc(C7CCOCC7)ccc6c5)C4)ccc3C2=O)C(=O)N1 [(3S)-3-(5-{[(3S)-1-{[2-(oxan-4-yl)-8-(trifluoromethyl)quinolin-6-yl]methyl}pyrrolidin-3-yl]oxy}-1-oxo-2,3-dihydro-1H-isoindol-2-yl)piperidine-2,6-dione] | 2.25 |
| 32.12 | 75 | 29.3 |  |  | O=C1CC[C@H](N2Cc3cc(O[C@H]4CCN(Cc5ccc6nc(C7CCOCC7)ncc6c5)C4)ccc3C2=O)C(=O)N1 [(3S)-3-(5-{[(3S)-1-{[2-(oxan-4-yl)quinazolin-6-yl]methyl}pyrrolidin-3-yl]oxy}-1-oxo-2,3-dihydro-1H-isoindol-2-yl)piperidine-2,6-dione] | 9.327 |
| 31.9 | 1.62 | 3.12 |  |  | O=C1CC[C@H](N2Cc3cc(O[C@H]4CCN(Cc5ccc6nc(C7CCOCC7)ccc6c5)C4)ccc3C2=O)C(=O)N1 [(3S)-3-(5-{[(3S)-1-{[2-(oxan-4-yl)quinolin-6-yl]methyl}pyrrolidin-3-yl]oxy}-1-oxo-2,3-dihydro-1H-isoindol-2-yl)piperidine-2,6-dione] | 10.43 |
|  | 3.58 |  | 28.46 | 18.3 | O=C1CC[C@H](N2Cc3cc(O[C@H]4CCN(Cc5ccc6nc(N7CCOCC7)ncc6c5Cl)C4)ccc3C2=O)C(=O)N1 [(3S)-3-(5-{[(3S)-1-{[5-chloro-2-(morpholin-4-yl)quinazolin-6-yl]methyl}pyrrolidin-3-yl]oxy}-1-oxo-2,3-dihydro-1H-isoindol-2-yl)piperidine-2,6-dione] | 17.49 |
| 34.42 | 0.306 | 2.1 |  |  | O=C1CC[C@H](N2Cc3cc(O[C@H]4CCN(Cc5ccc6nc(C7CCOCC7)ccc6c5F)C4)ccc3C2=O)C(=O)N1 [(3S)-3-(5-{[(3S)-1-{[5-fluoro-2-(oxan-4-yl)quinolin-6-yl]methyl}pyrrolidin-3-yl]oxy}-1-oxo-2,3-dihydro-1H-isoindol-2-yl)piperidine-2,6-dione] | 12.14 |
| 33.42 | 0.844 | 1.82 |  |  | O=C1CC[C@H](N2Cc3cc(O[C@H]4CCN(Cc5cc6ccc(C7CCOCC7)cc6cn5)C4)ccc3C2=O)C(=O)N1 [(3S)-3-(5-{[(3S)-1-{[7-(oxan-4-yl)isoquinolin-3-yl]methyl}pyrrolidin-3-yl]oxy}-1-oxo-2,3-dihydro-1H-isoindol-2-yl)piperidine-2,6-dione] | 8.913 |
|  | 14.7 |  | 36.02 | 15.2 | O=C1CC[C@H](N2Cc3cc(O[C@H]4CCN(Cc5cc6cnc(N7CCOCC7)nc6cc5F)C4)ccc3C2=O)C(=O)N1 [(3S)-3-(5-{[(3S)-1-{[7-fluoro-2-(morpholin-4-yl)quinazolin-6-yl]methyl}pyrrolidin-3-yl]oxy}-1-oxo-2,3-dihydro-1H-isoindol-2-yl)piperidine-2,6-dione] | 10.84 |
|  | 6.72 |  | 53.75 | 166 | CC(C)(O)c1cc(CN2CC[C@H](Oc3ccc4c(c3)CN([C@H]3CCC(=O)NC3=O)C4=O)C2)cc2ccc(C3CCOCC3)nc12 [(3S)-3-(5-{[(3S)-1-{[8-(2-hydroxypropan-2-yl)-2-(oxan-4-yl)quinolin-6-yl]methyl}pyrrolidin-3-yl]oxy}-1-oxo-2,3-dihydro-1H-isoindol-2-yl)piperidine-2,6-dione] | 75.97 |
|  | 26 |  | 33.36 | 10.8 | O=C1CC[C@H](N2Cc3cc(O[C@H]4CCN(Cc5cc(N6CCC6)c6nc(C7CCOCC7)ccc6c5)C4)ccc3C2=O)C(=O)N1 [(3S)-3-(5-{[(3S)-1-{[8-(azetidin-1-yl)-2-(oxan-4-yl)quinolin-6-yl]methyl}pyrrolidin-3-yl]oxy}-1-oxo-2,3-dihydro-1H-isoindol-2-yl)piperidine-2,6-dione] | 3.155 |
|  | 2.88 |  | 38.34 | 10.8 | O=C1CC[C@H](N2Cc3cc(O[C@H]4CCN(Cc5cc(Cl)c6nc(N7CCOCC7)ncc6c5)C4)ccc3C2=O)C(=O)N1 [(3S)-3-(5-{[(3S)-1-{[8-chloro-2-(morpholin-4-yl)quinazolin-6-yl]methyl}pyrrolidin-3-yl]oxy}-1-oxo-2,3-dihydro-1H-isoindol-2-yl)piperidine-2,6-dione] | 12.54 |
